Source: patent publication US20230339886A1 (University of Florida Research Foundation, Incorporated, priority 2020, published 2023)

Biological target: T1, REV-ERBα LBD (human; residues 281-614 Δ324-422) (Homo sapiens, UniProt P20393, DEL324-422)
T1 construct: 6×Histag-REV-ERBα LBD (human; residues 281-614 Δ324-422); made in house; host or cells: Escherichia coli
Assay: TR-FRET corepressor interaction assay (REV-ERBα LBD, FITC-SMRT peptide)
Format: biochemical
Settings: FITC-SMRT peptide, read-out: REVERBα agonism (EC50 class, FRET assay)
Outline: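 Compound serial dilutions (in DMSO, triplicate) incubated 2 h at 4 °C; Tb donor excited at 340 nm, emission read at 495 nm and FITC acceptor at 520 nm. TR-FRET ratio (520/495 nm) plotted against ligand concentration and fitted to a sigmoidal dose-response curve.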

T1 sequence (P20393 with tags, fused parts or gaps DEL324-422): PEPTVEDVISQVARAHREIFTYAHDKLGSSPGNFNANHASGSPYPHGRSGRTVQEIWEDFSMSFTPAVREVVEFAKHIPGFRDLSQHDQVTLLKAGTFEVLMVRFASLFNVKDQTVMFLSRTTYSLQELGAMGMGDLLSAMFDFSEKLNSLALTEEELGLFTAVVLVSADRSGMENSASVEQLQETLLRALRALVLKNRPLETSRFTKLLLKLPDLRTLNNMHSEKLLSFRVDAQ
T1 sequence (Q9Y618 2335-2356 partner limits assumed): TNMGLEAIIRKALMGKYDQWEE

Compound	EC50 [nM]
CC(C)(C)Cn1cc([C@H](NS(=O)(=O)C2CCC2)C(F)(F)F)c2cc(F)c(-c3c(F)cccc3C(F)(F)F)cc21 [Example 511, N-((1S)-2,2,2-trifluoro-1-(5-fluoro-6-(2-fluoro-6-(trifluoromethyl)phenyl)-1-neopentyl-1H-indol-3-yl)ethyl)cyclobutanesulfonamide]	500 to 3000
CC(C)(C)Cn1cc([C@H](NS(=O)(=O)C2CC2(F)F)C(F)(F)F)c2ccc(-c3ccccc3C(F)(F)F)cc21 (stereo partly drawn) [Example 515, 2,2-difluoro-N—((S)-2,2,2-trifluoro-1-(1-neopentyl-6-(2-(trifluoromethyl)phenyl)-1H-indol-3-yl)ethyl)cyclopropane-1-sulfonamide]	500 to 3000
CC(C)(C)Cn1cc([C@H](NS(=O)(=O)C2CC(O)C2)C(F)(F)F)c2ccc(-c3ccccc3C(F)(F)F)cc21 (stereo partly drawn) [Example 522, (S)-3-hydroxy-N-(2,2,2-trifluoro-1-(1-neopentyl-6-(2-(trifluoromethyl)phenyl)-1H-indol-3-yl)ethyl)cyclobutane-1-sulfonamide]	500 to 3000
CC(C)(C)Cn1cc([C@H](NS(=O)(=O)C2CC2)C(F)(F)F)c2cc(F)c(-c3ccccc3C(F)(F)F)nc21 [Example 524, (S)—N-(2,2,2-trifluoro-1-(5-fluoro-1-neopentyl-6-(2-(trifluoromethyl)phenyl)-1H-pyrrolo[2,3-b]pyridin-3-yl)ethyl)cyclopropanesulfonamide]	< 500
CC(C)(C)Cn1cc([C@H](NS(=O)(=O)C2CCC2)C(F)(F)F)c2cc(F)c(-c3ccccc3C(F)(F)F)nc21 [Example 525, (S)—N-(2,2,2-trifluoro-1-(5-fluoro-1-neopentyl-6-(2-(trifluoromethyl)phenyl)-1H-pyrrolo[2,3-b]pyridin-3-yl)ethyl)cyclobutanesulfonamide]	< 500
N#Cc1cccc(F)c1-c1ccc2c([C@H](NS(=O)(=O)C3CCC3)C(F)(F)F)cn(C3CCOCC3)c2c1 [Example 526, (S)—N-(1-(6-(2-cyano-6-fluorophenyl)-1-(tetrahydro-2H-pyran-4-yl)-1H-indol-3-yl)-2,2,2-trifluoroethyl)cyclobutanesulfonamide]	< 500
CC(C)(C)Cn1cc([C@H](NS(=O)(=O)C2CCC2)C(F)F)c2ccc(-c3c(F)cccc3C(F)(F)F)cc21 [Example 527, (S)—N-(2,2-difluoro-1-(6-(2-fluoro-6-(trifluoromethyl)phenyl)-1-neopentyl-1H-indol-3-yl)ethyl)cyclobutanesulfonamide]	< 500
CC(C)(C)Cn1cc([C@H](NS(=O)(=O)C2CCC2)C(F)(F)F)c2cc(F)c(-c3cccnc3C(F)(F)F)cc21 [Example 528, (S)—N-(2,2,2-trifluoro-1-(5-fluoro-1-neopentyl-6-(2-(trifluoromethyl)pyridin-3-yl)-1H-indol-3-yl)ethyl)cyclobutanesulfonamide]	< 500
CC(C)(C)Cn1cc([C@H](NS(=O)(=O)C2CCC2)C(F)(F)F)c2cc(F)c(-c3cnccc3C(F)(F)F)cc21 [Example 530, (S)—N-(2,2,2-trifluoro-1-(5-fluoro-1-neopentyl-6-(4-(trifluoromethyl)pyridin-3-yl)-1H-indol-3-yl)ethyl)cyclobutanesulfonamide]	< 500
CC(C)(C)Cn1cc([C@H](NS(=O)(=O)C2CCC2)C(F)F)c2cc(F)c(-c3ccccc3C(F)(F)F)nc21 [Example 533, (S)—N-(2,2-difluoro-1-(5-fluoro-1-neopentyl-6-(2-(trifluoromethyl)phenyl)-1H-pyrrolo[2,3-b]pyridin-3-yl)ethyl)cyclobutanesulfonamide]	< 500
CC(C)(C)Cn1cc([C@H](NS(=O)(=O)C2CCC2)C(F)(F)F)c2ccc(-c3ccccc3C#N)nc21 [Example 534, (S)—N-(1-(6-(2-cyanophenyl)-1-neopentyl-1H-pyrrolo[2,3-b]pyridin-3-yl)-2,2,2-trifluoroethyl)cyclobutanesulfonamide]	< 500
CC(C)(C)Cn1cc([C@H](NS(=O)(=O)C2CCC2)C(F)F)c2ccc(-c3c(C#N)cccc3C(F)(F)F)cc21 [Example 535, (S)—N-(1-(6-(2-cyano-6-(trifluoromethyl)phenyl)-1-neopentyl-1H-indol-3-yl)-2,2-difluoroethyl)cyclobutanesulfonamide]	< 500
CC(C)(C)Cn1cc([C@H](NS(=O)(=O)C2CC2)C(F)(F)F)c2ccc(-c3ccccc3C(F)(F)F)c(F)c21 [Example 536, (S)—N-(2,2,2-trifluoro-1-(7-fluoro-1-neopentyl-6-(2-(trifluoromethyl)phenyl)-1H-indol-3-yl)ethyl)cyclopropanesulfonamide]	< 500

The remaining lines, values ahead:

EC50 [nM]	Compound
< 500	CC(C)C(=O)n1cc([C@H](NS(=O)(=O)C2CCC2)C(F)(F)F)c2cc(F)c(-c3ccccc3C(F)(F)F)cc21 [Example 505, (S)—N-(2,2,2-trifluoro-1-(5-fluoro-1-isobutyryl-6-(2-(trifluoromethyl)phenyl)-1H-indol-3-yl)ethyl)cyclobutanesulfonamide]
< 500	CC(C)(C)Cn1cc([C@H](NS(=O)(=O)C2CCC2)C(F)(F)F)c2ccc(C3CCCC3)cc21 [Example 506, (S)—N-(1-(6-cyclopentyl-1-neopentyl-1H-indol-3-yl)-2,2,2-trifluoroethyl)cyclobutanesulfonamide]
< 500	CC(NS(=O)(=O)C1CCC1)c1cn(CC(C)(C)C)c2cc(-c3ccccc3C(F)(F)F)ccc12 (centres unmarked) [Example 507, N-(1-(1-neopentyl-6-(2-(trifluoromethyl)phenyl)-1H-indol-3-yl)ethyl)cyclobutanesulfonamide]
< 500	CC(NS(=O)(=O)C1CCC1)c1cn(CC(C)(C)C)c2cc(-c3ccccc3C(F)(F)F)c(F)cc12 (centres unmarked) [Example 508, N-(1-(5-fluoro-1-neopentyl-6-(2-(trifluoromethyl)phenyl)-1H-indol-3-yl)ethyl)cyclobutanesulfonamide]
< 500	[2H]C([2H])([2H])C(NS(=O)(=O)C1CCC1)c1cn(CC(C)(C)C)c2cc(-c3ccccc3C(F)(F)F)ccc12 (centres unmarked) [Example 509, N-(1-(1-neopentyl-6-(2-(trifluoromethyl)phenyl)-1H-indol-3-yl)ethyl-2,2,2-d3)cyclobutanesulfonamide]
< 500	CC(NS(=O)(=O)C1CCC1)c1cn(CC2CCCC2)c2cc(-c3ccccc3C(F)(F)F)ccc12 (centres unmarked) [Example 510, N-(1-(1-(cyclopentylmethyl)-6-(2-(trifluoromethyl)phenyl)-1H-indol-3-yl)ethyl)cyclobutanesulfonamide]
< 500	CC1(Cn2cc([C@H](NS(=O)(=O)C3CCC3)C(F)(F)F)c3ccc(-c4ccccc4C(F)(F)F)cc32)CC1 [Example 512, (S)—N-(2,2,2-trifluoro-1-(1-((1-methylcyclopropyl)methyl)-6-(2-(trifluoromethyl)phenyl)-1H-indol-3-yl)ethyl)cyclobutanesulfonamide]
< 500	CC(C)(C)Cn1cc([C@H](NS(=O)(=O)C2CCC2)C(F)F)c2ccc(-c3ccccc3C(F)(F)F)cc21 [Example 513, (S)—N-(2,2-difluoro-1-(1-neopentyl-6-(2-(trifluoromethyl)phenyl)-1H-indol-3-yl)ethyl)cyclobutanesulfonamide]
< 500	C[C@H]1C[C@@H]1S(=O)(=O)N[C@@H](c1cn(CC(C)(C)C)c2cc(-c3ccccc3C(F)(F)F)ccc12)C(F)(F)F [Example 514, (1S,2S)-2-methyl-N—((S)-2,2,2-trifluoro-1-(1-neopentyl-6-(2-(trifluoromethyl)phenyl)-1H-indol-3-yl)ethyl)cyclopropane-1-sulfonamide]
< 500	CC(C)(C)Cn1cc([C@@H](CF)NS(=O)(=O)C2CCC2)c2ccc(-c3ccccc3C(F)(F)F)cc21 [Example 516, (S)—N-(2-fluoro-1-(1-neopentyl-6-(2-(trifluoromethyl)phenyl)-1H-indol-3-yl)ethyl)cyclobutanesulfonamide]
< 500	[2H]C([2H])(n1cc([C@H](NS(=O)(=O)C2CCC2)C(F)(F)F)c2ccc(-c3ccccc3C(F)(F)F)cc21)C(C)(C)C [Example 517, (S)—N-(1-(1-(2,2-dimethylpropyl-1,1-d2)-6-(2-(trifluoromethyl)phenyl)-1H-indol-3-yl)-2,2,2-trifluoroethyl)cyclobutanesulfonamide]
< 500	CC(C)(C)Cn1cc([C@H](NS(=O)(=O)C2CCC2)C(F)F)c2ccc(-c3ccccc3C(F)(F)F)nc21 [Example 518, (S)—N-(2,2-difluoro-1-(1-neopentyl-6-(2-(trifluoromethyl)phenyl)-1H-pyrrolo[2,3-b]pyridin-3-yl)ethyl)cyclobutanesulfonamide]
< 500	CC(C)(C)Cn1cc([C@H](NS(=O)(=O)C2CCC2)C(F)(F)F)c2ccc(C3CCOCC3)cc21 [Example 519, (S)—N-(2,2,2-trifluoro-1-(1-neopentyl-6-(tetrahydro-2H-pyran-4-yl)-1H-indol-3-yl)ethyl)cyclobutanesulfonamide]
< 500	N#Cc1cccc(F)c1-c1ccc2c([C@H](NS(=O)(=O)C3CCC3)C(F)(F)F)cn(C3CCC3)c2c1 [Example 520, (S)—N-(1-(6-(2-cyano-6-fluorophenyl)-1-cyclobutyl-1H-indol-3-yl)-2,2,2-trifluoroethyl)cyclobutanesulfonamide]
< 500	CC(C)(C)Cn1cc([C@H](NS(=O)(=O)C2CCC2)C(F)(F)F)c2ccc(C3=CCCC3)cc21 [Example 521, (S)—N-(1-(6-cyclopentenyl-1-neopentyl-1H-indol-3-yl)-2,2,2-trifluoroethyl)cyclobutanesulfonamide]
< 500	O=S(=O)(N[C@@H](c1cn(CC2(C(F)(F)F)CC2)c2cc(-c3ccccc3C(F)(F)F)ccc12)C(F)(F)F)C1CCC1 [Example 523, (S)—N-(2,2,2-trifluoro-1-(1-((1-(trifluoromethyl)cyclopropyl)methyl)-6-(2-(trifluoromethyl)phenyl)-1H-indol-3-yl)ethyl)cyclobutanesulfonamide]
